# Test results taken from patent US8575111B2, “Pharmaceutical compositions and methods for treating erectile dysfunction” (Universidade Federal de Minas Garais-UFMG, priority 2007, dated 2013).
# Assays:
# erectile dysfunction = conditions: men with erectile dysfunction; cited from earlier work
# [1] = Absorption and biological stability after gavage in Wistar rats; type: in vivo, rat; conditions: Ang-(1-7) peptide alone, gavage 100 μg/50 μl
# Experimental: Assays for determining absorption and biological stability of the Ang-(1-7)/HPβ-CD inclusion complex were made in aqueous solution. Twelve normal Wistar rats properly prepared were used to carry out the experiments. The animals were divided in 3 experimental groups and subjected to a gavage procedure with a salt solution (0.9%/50 μl) of Ang-(1-7) (100 μg/50 μl) and Ang-(1-7)/HPβ-CD (100 μg/50 μl). Four blood samples (1 ml, each) from the animals were collected. The first collection occurred before gavage procedure, and the remaining three 2, 6 and 24 hours post gavage.
# erectile function of SHR = experiment: Erectile function (CCP/MAP) of SHR chronically treated orally; type: in vivo, rat; conditions: chronic oral treatment, drug alone, 1.5 V
# Experimental: Eight weeks post-treatment with Ang-(1-7)/HPβ-CD Inclusion Complex and/or Atenolol, the erectile function of the animals (SHR, spontaneously hypertensive rats) was evaluated. Particularly, erectile function of animals chronically treated with Atenolol was evaluated after concurrent administration with Ang-(1-7)/HPβ-CD Inclusion Complex. The drugs were orally administered via solutions containing them, alone or in combination. As a control, a group of animals was treated with HPβ-CD.
# The procedure for inducing erection and intracavernosal pressure measurement was made as previously described (see, T. M. Mills, R. W. Lewis, V. S. Stopper, Biol Reprod 59, 1413 (December, 1998). Firstly, the animals (SHR) were anesthetized with intraperitoneal urethane (140 mg/kg) and placed on a thermal plate to maintain body temperature at 37° C. A polyethylene cannule was introduced into the animal trachea to keep respiratory patency. Following, the rat left femoral artery was cannulated with a polyethylene tube (PE-50) with heparinized saline (200 U/ml) for continuous monitoring of mean arterial pressure (MAP). The catheter was connected to a pressure transducer. The penial erection was obtained by applying electric stimulation on the major pelvic ganglion (MPG). […]
# [2] = test system: rat ganglionic-stimulated erectile response; experiment: Ganglionic-stimulated changes in CCP/MAP after intracavernosal drug administration in anesthetized rats; type: in vivo
# Experimental: Normotensive and DOCA-salt hypertensive rats, Mas−/− and WT mice were anesthetized with intraperitoneal urethane (140 mg/Kg). The rat left femoral artery and mice […] was cannulated for continuous monitoring of mean arterial pressure (MAP). The shaft of the penis was freed of skin and fascia, and the right corpus cavernosum was cannulated by insertion of a 30-gauge needle connected to a pressure transducer, permitting continuous monitoring of corpus cavernosum pressure (CCP) as described elsewhere (see, e.g., T. M. Mills, et al., Biol Reprod 59, 1413 (December, 1998)). The rat left corpus cavernosum was cannulated with 30-gauge needles attached to 10-μL syringes via short lengths of polyethylene (PE)-10 tubing and used for administration of vasoactive drugs. The abdominal cavity was opened, exposing the right major pelvic ganglion (MPG), and silver bipolar electrodes were positioned on it. […]
# In order to evaluate the role of the Ang-(1-7) released endogenously, it was first determined the minimal stimuli in which the maximal value of the CCP/MAP was achieved. […]
# To evaluate the effect of Ang-(1-7) on ganglionic-stimulated CCP/MAP rise in the presence of NOS inhibition, a sub-maximal stimulus was determined and applied to the MPG. […] Thereafter, Ang-(1-7) was administered and sub-maximal stimulus was applied while CCP/MAP was continuously recorded.
# AT1 = target: T1, AT1 (Homo sapiens, UniProt P30556); conditions: receptor AT1; cited from earlier work
# T1 sequence (P30556 1-359): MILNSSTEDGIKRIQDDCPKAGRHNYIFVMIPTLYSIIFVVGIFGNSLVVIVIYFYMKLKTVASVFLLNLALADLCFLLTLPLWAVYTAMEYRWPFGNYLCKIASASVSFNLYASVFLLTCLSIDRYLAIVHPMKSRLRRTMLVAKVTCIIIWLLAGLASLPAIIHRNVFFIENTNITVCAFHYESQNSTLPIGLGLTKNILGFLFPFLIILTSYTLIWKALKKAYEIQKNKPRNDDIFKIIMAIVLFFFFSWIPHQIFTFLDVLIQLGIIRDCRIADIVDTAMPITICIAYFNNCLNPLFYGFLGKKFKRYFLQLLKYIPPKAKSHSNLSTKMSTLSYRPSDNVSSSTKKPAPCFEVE
compound,measurement,setting,value
CCCCC[C@H](O)/C=C/[C@H]1[C@H](O)CC(=O)[C@@H]1CCCCCCC(=O)O [ALPROSTADIL®],patients in whom the treatment is effective,erectile dysfunction,over 80%
"CC[C@H](C)[C@H](NC(=O)[C@H](Cc1ccc(O)cc1)NC(=O)[C@@H](NC(=O)[C@H](CCCNC(=N)N)NC(=O)[C@@H](N)CC(=O)O)C(C)C)C(=O)N[C@@H](Cc1c[nH]cn1)C(=O)N1CCC[C@H]1C(=O)O [Ang-(1-7), Asp-Arg-Val-Tyr-Ile-His-Pro]",increase of plasmatic peptide concentration relative to Ang-(1-7)/HPβ-CD,[1],about 8 fold lower
"CC(C)NCC(O)COc1ccc(CC(N)=O)cc1 (stereo not drawn) [Atenolol, atenolol]",effect on intracavernosal pressure rise induced by stimulation of the major pelvic ganglion,erectile function of SHR,reduced
"COC(=O)[C@@H](N)CCCNC(=N)N[N+](=O)[O-] [L-NAME, Nw-nitro-L-arginine methyl ester]",CCP/MAP induced by submaximal stimulus,"[2]; L-NAME 200 μg/Kg intracavernosal, mean±s.e.m., n=6, control 0.57±0.06, P<0.05",0.38±0.05
same,effect on baseline CCP or MAP,[2]; administration into left cavernosal sinuses,did not alter
"Des-Asp1-Ang I: angiotensin listed in Table 1, acting on AT1 (RVYIHPFHL; Angiotensin-1; UniProt P01019 26-34, looked up, fragment)",Actions,AT1,Inhibition of Ang II-induced cell
